Marks after values point to notes of the source that are not given here.
Legend:
[1] = tested on: rats with autologous thrombus and thrombin-induced cerebral ischemic injury; test: Ischemic brain injury induced by autologous thrombus and thrombin in rats (i.v., alone or with urokinase); assay type: in vivo, SD rats; conditions: n = 10
Protocol: Experimental Methods: A model of cerebral ischemic injury in SD rats was prepared by embolizing the middle cerebral artery of rats with autologous thrombus and thrombin via the external carotid artery to the internal carotid artery and the rats were randomly divided into 5 groups according to behavioral scores, a sham group (only the external carotid artery was isolated); a model-control group (saline was given to both groups in equal volume); urokinase (5000 U/kg) group; compound 1-1 ([…]) group; with 20 animals in each group (10 for detecting the rate of cerebral infarction, and the other 10 for pathological testing). Each group was administered slowly in the tail vein (1 ml per minute) 2 h after modeling, and the decrease in blood flow was monitored after thrombin injection and 120 min after administration. Neurobehavioral scoring was performed on the rats after 24 h to determine the neurological function of the rats; 2,3,5-triphenyltetrazolium chloride (TTC) staining was used to determine the rate of cerebral infarction and cerebral water content, and hematoxylin-eosin (HE) staining was used to observe the pathological damage of the brain in rats administered with the drug 2 h after cerebral ischemia.

[2] = tested on: acute inflammatory response caused by ellagic acid (serum cytokines); test: Antibody microarray detection of serum factors in ellagic acid model mice; assay type: in vivo, ICR mice; parameters: TNFa / IL-6 / IL-1b / IL-5 / IL-13 / IL-1α / IL-1β / IL-2 / IL-3 / IL-4 / IFNg / CD40: unit not given here
Protocol: Experimental methods: ICR male mice, weighed about 25 g, were randomly divided into four groups: normal group, ellagic acid model group, 1-1 group, and 1-22 group, with four mice in each group. Mice in 1-1 group and 1-22 group were given 1-1, 100 mg/kg and 1-22, 100 mg/kg by gavage once a day respectively. 1 h after the third administration, except for the normal control group, the other three groups of mice were injected into the tail vein with 0.10 mL/10 g of 0.3% ellagic acid saline solution, and 1 h after injection, whole blood was collected from each animal, and centrifuged (3,000 rpm/min) for 10 min after 30 min of standing, and then centrifuged to obtain the serum. The serum from each group of animal was mixed in an EP tube, transported at −80° C., and sent for antibody microarray detection.

[3] = Table 16, pooled serum, 100 mg/kg by gavage
[4] = Table 17, pooled serum, 100 mg/kg by gavage
[5] = Table 18, pooled serum, 100 mg/kg by gavage
[6] = Table 19, pooled serum, 100 mg/kg by gavage

CCOC(=O)CCNC(=O)CCNc1cc(=O)n(C)c(=O)n1C [Compound 1-1]
Cerebral infarction rate ([1]; 9 mg/kg i.v., TTC staining, mean ± S.D.): 14.99 ± 10.91 | behavioral score ([1]; 9 mg/kg i.v., after 24 h, Mean ± SD): 1.70 ± 0.82 | cerebral water content (%) ([1]; 9 mg/kg i.v., mean ± S.D.): 80.32 ± 0.97 % | Percentage decrease two hours after administration (%) ([1]; cerebral blood flow, 9 mg/kg i.v. 2 h after modeling, Mean ± SD): 29.24 ± 2.67 % | Percentage decrease after thrombin injection (%) ([1]; cerebral blood flow, before administration, 9 mg/kg group, Mean ± SD): 39.18 ± 4.75% | Pathology Score ([1]; cerebral ischemic areas, 9 mg/kg i.v., mean ± SD): 2.20 ± 1.01 | IL-6 [2, 3]: 18,375.64* | RANTES/ccl5 [2, 3]: 2,825.89* | TNFa [2, 3]: 386.79 | IL-1b ([2]; Table 16, pooled serum, 100 mg/kg by gavage once a day x3, 1 h after ellagic acid): 312.69 | IL-1α [2, 4]: 1,118.99* | IL-1β [2, 4]: 312.69 | IL-2 [2, 4]: 565.56 | IL-3 [2, 4]: 1,106.55 | IL-4 [2, 4]: 1,367.20 | IL-5 [2, 4]: 285.74* | IL-6 [2, 4]: 18,375.64* | IL-13 [2, 4]: 800.30* | Eotaxin/CCL11 [2, 5]: 4,696.55 | MCP1/CCL2 [2, 5]: 3,045.61 | MIP-3a/CCL20 [2, 5]: 1,505.55* | RANTES/CCL5 [2, 5]: 2,825.89* | CD40 [2, 6]: 639.15 | IFNg [2, 6]: 295.07* | number of down-regulated differential proteins ([2]; interleukin factors (Table 17), compared with the model group): four

From patent publication US20250066310A1, “MULTI-SUBSTITUTED URACIL DERIVATIVE AND PREPARATION METHOD THEREFOR AND APPLICATION THEREOF” (HANGZHOU ADAMERCK PHARMLABS INC., priority 2021, published 2025)
